Results on 52 compounds are retold here after ChEMBL document CHEMBL6182881, “Optimized ebselen derivatives as novel potent Escherichia coli β-glucuronidase covalent allosteric inhibitors” (Eur J Med Chem, 2025).

Each structure is given as a SMILES string. Active and inactive are the calls of the source. The rule behind the calls is not given here.

The inhibition is the percentage by which the read-out fell short of the control. In general, IC50 refers to the midpoint of a concentration-inhibition curve.

Data set [1] relates to Escherichia coli. As to the kind of experiment: Covalent allosteric inhibition of recombinant Escherichia coli beta-glucuronidase using PNPG as substrate at 10 uM incubated for 30 mins by absorbance based microplate reader assay relative to control.
Data set [2] is described as follows: Covalent allosteric inhibition of recombinant Escherichia coli beta-glucuronidase using PNPG as substrate incubated for 30 mins by absorbance based microplate reader assay.
The nature of data set [3]: Cytotoxicity against human HCT-116 cells assessed as cell viability at 5 uM incubated for 24 hrs by CCK-8 assay relative to control. It is filed as toxicity, cell-based. The conditions noted are these: read-out: Activity. On the technique in general: Tetrazolium dyes change colour on reduction, which living cells bring about.
A short description of data set [4]: Binding affinity to Escherichia coli beta-glucuronidase assessed as inhibition constant.
Data set [5] deals with Escherichia coli. Nature of the data set: Potency index, ratio of IC50 for amoxapine to test compound IC50 for covalent allosteric inhibition of recombinant Escherichia coli beta-glucuronidase using PNPG as substrate incubated for 30 mins by absorbance based microplate reader assay.
Data set [6] concerns Escherichia coli. Nature of the data set: Covalent reversible binding affinity to recombinant Escherichia coli beta-glucuronidase using PNPG as substrate at 10 times IC50 pre-incubated for 30 mins followed by substrate addition by jump dilution assay.
Data set [7] deals with Escherichia coli. As to the kind of experiment: Covalent binding affinity to recombinant Escherichia coli beta-glucuronidase at Cys28 residue by LC-MS/MS analysis.
Data set [8] relates to Escherichia coli. Nature of the data set: Covalent binding affinity to recombinant Escherichia coli beta-glucuronidase at Cys443 residue by LC-MS/MS analysis.
Data set [9] has as its system Escherichia coli. As to the kind of experiment: Covalent binding affinity to recombinant Escherichia coli beta-glucuronidase at Cys197 residue by LC-MS/MS analysis.
Data set [10] is described as follows: Covalent reversible binding affinity to recombinant Escherichia coli beta-glucuronidase assessed as apparent inhibition constant incubated for 30 mins. The conditions noted are these: read-out: Ki(app).
Data set [11] is described as follows: Covalent inhibition of Escherichia coli beta-glucurodinase.
Data set [12] relates to Escherichia coli. Nature of the data set: Covalent irreversible binding affinity to recombinant Escherichia coli beta-glucuronidase assessed as inactivation constant incubated for 30 mins.
Data set [13] can be described thus: Covalent irreversible binding affinity to recombinant Escherichia coli beta-glucuronidase assessed as inhibition constant incubated for 30 mins.
Data set [14] deals with Escherichia coli. As to the kind of experiment: Covalent irreversible binding affinity to recombinant Escherichia coli beta-glucuronidase assessed as kinact/ki ratio incubated for 30 mins.
Data set [15] concerns Escherichia coli. Nature of the data set: Covalent irreversible binding affinity to recombinant Escherichia coli beta-glucuronidase using PNPG as substrate at 10 times IC50 pre-incubated for 30 mins followed by substrate addition by jump dilution assay.

For the compound `O=c1[nH][se]c2ccc(C(F)(F)F)cc12`, in [1], the inhibition is less than 90%.
Take `O=c1c2ccccc2[se]n1-c1nnc(C(F)(F)F)s1`: the IC50 in data set [2] is 0.188 µM. Besides, the inhibition in [1] came out at 93.7%.
Regarding `O=c1[nH][se]c2ccccc12`, in [1], the inhibition was found to be 72.1%.
For `O=C(O)c1ccc(-n2[se]c3ccccc3c2=O)cc1`, the IC50 in [2] is 0.0557 µM. Besides, the viability at 24 h, 5 µM in [3] turned out to be 86.2%. The inhibition in data set [1] amounted to 96.8%.
Regarding `O=c1c2ccccc2[se]n1-c1ccccc1`, the inhibition in [1] is less than 90%.
With `CCn1[se]c2ccccc2c1=O`, the inhibition in data set [1] is less than 90%.
As to `COC(=O)c1ccc2c(=O)n(-c3cccc4cccnc34)[se]c2c1`, in [2], the IC50 came to 0.0634 µM. Also, in [1], the inhibition was 98.4%.
For `Cc1nnc(-n2[se]c3ccccc3c2=O)o1`, the IC50 in data set [2] came out at 0.116 µM. The inhibition in data set [1] came out at 97.5%.
In the case of `O=c1c2ccccc2[se]n1-c1cc(C2CC2)[nH]n1`, the inhibition in data set [1] was less than 90%.
Consider `Clc1ccc2c(c1)C(N1CCNCC1)=Nc1ccccc1O2` [AMOXAPINE], for which the Ki in data set [4] is 0.18 µM. Moreover, the IC50 in data set [2] was 0.202 µM. The inhibition in data set [1] was determined as 88.9%.
In the case of `CN1CCC(n2[se]c3ccccc3c2=O)CC1`, in data set [2], the IC50 came to 0.0585 µM. Besides, the inhibition in data set [1] amounted to 93.9%.
For `O=c1c2ccccc2[se]n1-c1ccc(C(F)(F)F)cc1`, the inhibition in data set [1] was less than 90%.
As to `Cn1cc(-n2[se]c3ccccc3c2=O)cn1`, the IC50 in data set [2] was 0.0421 µM. For the same compound, the inhibition in [1] came out at 94.8%.
Regarding `O=c1c2ccccc2[se]n1CCO`, in data set [2], the IC50 was 0.0183 µM. Also, the viability at 24 h, 5 µM in data set [3] turned out to be 86.2%. In addition, the inhibition in data set [1] was 96.2%.
For `CCCc1nnc(-n2[se]c3ccccc3c2=O)s1`, the inhibition in data set [1] is less than 90%.
Regarding `COC(=O)[C@H](CO)n1[se]c2ccccc2c1=O`, the IC50 in [2] turned out to be 0.0482 µM. Besides, in data set [3], the viability at 24 h, 5 µM came to 86.2%. Further, in data set [1], the inhibition was 93.8%.
For the compound `O=c1c2ccccc2[se]n1-c1cnc2[nH]ncc2c1`, the inhibition in data set [1] was less than 90%.
On the same count and under the same terms, as for `C=CCn1[se]c2ccccc2c1=O`, the figure is greater than 90%; as for `O=c1c2ccccc2[se]n1-c1nccs1`, less than 90%; as for `COc1ccc(-n2[se]c3ccccc3c2=O)cc1`, less than 90%.
Turning to `CNC(=O)c1cc(Oc2ccc(-n3[se]c4ccccc4c3=O)cc2)ccn1`, the IC50 in data set [2] is 0.446 µM. In addition, in data set [3], the viability at 24 h, 5 µM worked out at 86.2%. In addition, the inhibition in data set [1] stood at 96.2%.
Consider `O=c1c2ccccc2[se]n1-c1cccnc1`, for which the inhibition in data set [1] was greater than 90%.
Take `O=c1c2ccccc2[se]n1-c1cn[nH]c1`: in data set [5], the Ratio IC50 came out at 15.6. In addition, the outcome in data set [6], in data set [7], in data set [8] and in [9] was Active. In addition, the IC50 in data set [2] turned out to be 0.0129 µM. The viability at 24 h, 5 µM in [3] came out at 71.5%. The inhibition in [1] came to 98.3%. Further, the Ki in data set [10] came out at 0.0233 µM.
Take `O=c1c2cc(Br)ccc2[se]n1-c1ccccc1`: the inhibition in [1] is less than 90%.
On to `COC(=O)[C@H](CC(C)C)NC(=O)Cn1[se]c2ccccc2c1=O`, for which the inhibition in [1] was greater than 90%.
Take `O=c1c2ccccc2[se]n1-c1ccccn1`: the inhibition in [1] is less than 90%.
Take `O=c1c2ccccc2[se]n1-c1nnc(CC(F)(F)F)s1`: in data set [1], the inhibition turned out to be 6.11%.
For `COC(=O)[C@H](Cc1c[nH]c2ccccc12)n1[se]c2ccccc2c1=O`, in [1], the inhibition is greater than 90%.
Still for that read-out and setting: for `O=c1c2ccccc2[se]n1C1CCCCC1` the value was less than 90%; for `Cc1cc(-n2[se]c3ccccc3c2=O)n[nH]1`, less than 90%.
For `CN(C)CCn1[se]c2ccccc2c1=O`, the inhibition in data set [1] is greater than 90%.
On the same count and under the same terms, for `O=c1c2ccccc2[se]n1-c1ccc(F)cc1` the value was greater than 90%.
Turning to `Oc1ccccc1-c1nc2cc(Cl)cc(Cl)c2[nH]1`, in [11], 4.48 µM corresponded to half-maximal inhibition (IC50).
Consider `O=c1c2ccccc2[se]n1-c1nncs1`, for which the inhibition in data set [1] was less than 90%.
Still for that read-out and setting: as for `O=c1c2ccccc2[se]n1-c1ncc(C(F)(F)F)cc1Cl`, the figure is less than 90%; as for `O=c1c2ccccc2[se]n1-c1ccc2[nH]ccc2c1`, greater than 90%; as for `COC(=O)[C@H](CSC)n1[se]c2ccccc2c1=O`, greater than 90%.
Take `CC(=O)OC[C@H]1O[C@@H](n2cnc3c(-n4[se]c5ccccc5c4=O)ncnc32)[C@H](OC(C)=O)[C@@H]1OC(C)=O`: in [12], the Kinact worked out at 7.6 min⁻¹. Also, in [13], the Ki was 5.95 µM. The K in [14] was 21300 M⁻¹ s⁻¹. Moreover, in data set [2], the IC50 was determined as 0.0734 µM. In addition, the viability at 24 h, 5 µM in [3] came out at 81%. Also, the inhibition in data set [1] is 98.8%. For the same compound, the result in data set [9] and in data set [15] was Active.
For `COC(=O)[C@H](CCCCNC(=O)OC(C)(C)C)n1[se]c2ccccc2c1=O`, the IC50 in [2] was 0.0665 µM. For the same compound, the viability at 24 h, 5 µM in [3] was 86.2%. The inhibition in [1] came to 94.4%.
Take `O=c1c2ccccc2[se]n1-c1ccc2[nH]ncc2c1`: the inhibition in [1] is less than 90%.
`CC(C)(C)c1nnc(-n2[se]c3ccccc3c2=O)s1`: in data set [1], the inhibition is greater than 90%.
Take `O=c1c2ccccc2[se]n1-c1ccc(Cl)cc1`: the IC50 in [2] came to 0.127 µM. Also, the inhibition in data set [1] was determined as 94.3%.
Take `C=CCCn1[se]c2ccccc2c1=O`: the inhibition in data set [1] is less than 90%.
For the compound `O=c1c2ccccc2[se]n1CC(F)(F)F`, in data set [2], the IC50 stood at 0.0769 µM. Moreover, the inhibition in data set [1] came to 94.7%.
`COC(=O)[C@H](Cc1ccc(O)cc1)n1[se]c2ccccc2c1=O`: in [2], the IC50 came out at 0.0212 µM. Moreover, in data set [3], the viability at 24 h, 5 µM turned out to be 86.2%. Further, the inhibition in data set [1] came to 96.9%.
With `Cc1ccc2c(=O)n(Cc3ccccc3)[se]c2c1`, in data set [1], the inhibition is less than 90%.
The same measure, in the same setting: as for `O=c1c2ccccc2[se]n1-c1nnc(C2CCC(F)(F)CC2)s1`, the figure is less than 90%; as for `CC(C)c1nnc(-n2[se]c3ccccc3c2=O)s1`, less than 90%; as for `CCc1nnc(-n2[se]c3ccccc3c2=O)s1`, less than 90%.
On to `Cc1nnc(-n2[se]c3ccccc3c2=O)s1`, for which, in [1], the inhibition is less than 90%.
Still for that read-out and setting: as for `O=c1c2ccccc2[se]n1C12CC3CC(CC(C3)C1)C2`, the figure is less than 90%.
For the compound `O=c1c2ccccc2[se]n1-c1nnc(C2CCCC2)s1`, in data set [1], the inhibition is less than 90%.
